Experimental data: the NIST ThermoML archive (doi:10.1021/je7002786)

Columns and labels:
[1] = DTA
[2] = molar heat capacity at constant pressure; conditions: 101.33 kPa, Liquid

CCOS(=O)(=O)[O-].CCn1cc[n+](C)c1 [1-ethyl-3-methylimidazolium ethyl sulfate]
Conditions | Glass transition temperature [°C]
[1] | -78.40

[2], Small sample (50 mg) DSC
Conditions | molar heat capacity at constant pressure [J/K/mol]
283.1 K | 387.04
293.15 K | 409.73
303.15 K | 432.41
313.15 K | 455.09
323.15 K | 477.78
333.15 K | 500.46
343.15 K | 523.15
353.15 K | 545.83
363.15 K | 568.51
373.1 K | 591.2

CCCCn1cc[n+](C)c1.COS(=O)(=O)[O-] [1-butyl-3-methylimidazolium methyl sulfate]
Conditions | Normal melting temperature [°C] | molar heat capacity at constant pressure [J/K/mol]
[1], Crystal | -4.10 | –
[2], 283.1 K | – | 226.29
[2], 293.15 K | – | 246.56
[2], 303.15 K | – | 266.84
[2], 313.15 K | – | 287.11
[2], 323.15 K | – | 307.39
[2], 333.15 K | – | 327.66
[2], 343.15 K | – | 347.94
[2], 353.15 K | – | 368.22
[2], 363.15 K | – | 388.49
[2], 373.1 K | – | 408.77

Conditions | Glass transition temperature [°C]
[1] | -91.90
